In data set [1] the test system is pancreas cancer cell line HS766T. Description: In vitro cytotoxicity, MTS assay, pancreas cancer cells. Particulars: Homo sapiens, 168 h, 7 days exposure, dose causing death to 50% of cells, read-out: Cell Survival ED 50 Pancreas. The data set is classed as cell-based, human. The procedure: (§1) In these experiments, cells were seeded at 400 cells per well 24 hours prior to addition of the test compound. Cells were grown at 37° C. in a humidified atmosphere of 95% air, 5% CO2 for 7 days with daily media changes. Cytotoxicity was assessed using the CellTiter 96 Aqueous Proliferation Assay (Promega, Madison, Wis.).

Data set [2] deals with breast cancer cell line HS578T. Description: In vitro cytotoxicity, MTS assay, breast cancer cells. Particulars: 7 days exposure, dose causing death to 50% of cells, read-out: Cell Survival ED 50 Breast. The data set is classed as cell-based, human. The procedure: as §1
For data set [3], the system named is hormone-independent prostate cancer cell line DU145. Briefly: In vitro cytotoxicity, MTS (CellTiter 96 Aqueous Proliferation Assay), prostate cancer cells. The data set is classed as cell-based, human. Particulars: 7 days exposure, MTS, dose causing death to 50% of cells, read-out: Cell Survival ED 50 Prostate. The procedure:
FIG. 1 is a graph which compares the effects of the compound of Example 8 on normal human endothelial cells (AH-9) and human prostate cancer cells (DU145). Cells were exposed to the compound for seven days at the concentrations indicated. Cytotoxicity was assessed using the MTS assay.
as §1
In a separate experiment (FIG. 1), normal human endothelial cells (AH-9) and human prostate cancer cells (DU145) were exposed to increasing concentrations of the compound of Example 8 for seven days.

Data set [4] in a line: Mouse formalin test pain model, late phase. The data set is classed as in vivo. The procedure:
The formalin test was conducted using standard procedures (Hunskaar et al., J. Neurosci. Meth. 14:69-76 (1985). Mice (male CF-1, 20-25 g) were placed in Plexiglass jars for at least 1 hr to accommodate to the environment
The animals received either test drug at 5-50 mg/kg p.o. or the appropriate volume of vehicle (normal saline). Thirty minutes after p.o. dosing mice were injected with formalin (20 μl of 2.5% formaldehyde solution in saline) into the dorsal surface of the right hind paw.
All experiments were done in a blinded manner. The late phase of the formalin response was measured as licking/biting from 10-50 minutes after formalin injection. Differences between groups were analyzed by one-way analysis of variance (ANOVA), A P value ≦0.05 was considered significant. Reduction in the time spent licking/biting in the late phase of the formalin response is considered an indication of a reduction in chronic pain.

Each structure is given as a SMILES string. Read-outs that look alike come from different tables or passages of the source.

Consider `Cc1ccc(NC(=N)N(CCCCN)c2ccc(C)cc2)cc1` [Example 4, 1-Amino-4-[(N,N′-di-p-tolyl)guanidinyl]butane], for which the EC50 in data set [1] came out at 0.2 µM; in data set [2] (Homo sapiens, Hs-578T, 168 h) it was 1.7 µM; in data set [3] (Homo sapiens, DU-145, 168 h), 2.5 µM.
Take `Cc1ccc(NC(=N)N(CCN(C(=N)Nc2ccc(C)cc2)c2ccc(C)cc2)c2ccc(C)cc2)cc1` [Example 21, 1,2-Di-[(N,N′-di-p-tolyl)guanidinyl]ethane]: the “late phase pain versus control vehicle (post-hoc Newman-Kuels test)” value in data set [4] (30 mg/kg orally) is reported as “significant at P<0.05”. Also, in data set [4] (at the doses effective in the formalin test, p.o.), the “effect on general behavior of the animals” value is given as “did not affect the general behavior”. Further, the “time spent licking, late phase of formalin response (in words)” value in data set [4] (oral administration, 5-50 mg/kg, male CF-1 mice) is “dose-dependent reduction in the time spent licking”.
Regarding `Cc1ccc(NC(=N)N(CCCCN(C(=N)Nc2ccc(C)cc2)c2ccc(C)cc2)c2ccc(C)cc2)cc1` [Example 5, 1,4-Di-[(N,N′-di-p-tolyl)guanidinyl]butane], the EC50 in data set [2] (Homo sapiens, Hs-578T, 168 h) was 0.3 µM; in data set [3] (Homo sapiens, DU-145, 168 h), 0.7 µM.
Consider `COc1cccc2c1C(=O)c1c(O)c3c(c(O)c1C2=O)C[C@@](O)(C(=O)CO)C[C@@H]3O[C@H]1C[C@H](N)[C@H](O)[C@H](C)O1` [Doxorubicin, doxorubicin, reference compound], for which the EC50 in data set [1] amounted to 0.3 µM; in data set [2] (Homo sapiens, Hs-578T, 168 h), 2 µM; in data set [3] (Homo sapiens, DU-145, 168 h), 7 µM.
Consider `Cc1ccc(NC(=N)N(CCc2c[nH]c3ccccc23)c2ccc(C)cc2)cc1` [Example 9, 1-[(N,N′-di-p-tolyl)guanidinyl]-2-(3-indolyl)ethane], for which the EC50 is 0.5 µM in data set [1]; 4.2 µM in data set [2] (Homo sapiens, Hs-578T, 168 h); 5.1 µM in data set [3] (Homo sapiens, DU-145, 168 h).
As to `Cc1ccc(N=C(Nc2ccc(C)cc2)N2CCOCCOCCN(C(=Nc3ccc(C)cc3)Nc3ccc(C)cc3)CCOCCOCC2)cc1` [Example 16, 7,16-Di-[(N,N′-Di-p-tolyl)amidino]-1,4,10,13-tetraoxa-7,16-diazacyclooctadecane], the EC50 in data set [2] (Homo sapiens, Hs-578T, 168 h) turned out to be 0.6 µM; in data set [3] (Homo sapiens, DU-145, 168 h), 1 µM.
Consider `CC[C@]1(O)C[C@@H]2CN(CCc3c([nH]c4ccccc34)[C@@](C(=O)OC)(c3cc4c(cc3OC)N(C)[C@H]3[C@@](O)(C(=O)OC)[C@H](OC(C)=O)[C@]5(CC)C=CCN6CC[C@]43[C@@H]65)C2)C1` [Vinblastine, vinblastine, reference compound], for which the EC50 came out at 0.2 µM in data set [1]; 1.2 µM in data set [2] (Homo sapiens, Hs-578T, 168 h); 4 µM in data set [3] (Homo sapiens, DU-145, 168 h).
For `COc1cc([C@@H]2c3cc4c(cc3[C@@H](O[C@@H]3O[C@@H]5CO[C@@H](C)O[C@H]5[C@H](O)[C@H]3O)[C@H]3COC(=O)[C@H]23)OCO4)cc(OC)c1O` [Etoposide, etoposide, reference compound] the same measures were 2 µM, 0.4 µM and 0.6 µM.
As to `C[C@]12CC[C@@H]3c4ccc(OC(=O)N(CCCl)CCCl)cc4CC[C@H]3[C@@H]1CC[C@@H]2O` [Estramustine, reference compound], in data set [3] (Homo sapiens, DU-145, 168 h), the EC50 was 11 µM.
With `Cc1ccc(N(c2ccc(C)cc2)N2CCC(C#N)(c3ccccc3)CC2)cc1` [Example 14, 4-Cyano-1-[(N,N′-di-p-tolyl)amino]-4-phenylpiperidine], the EC50 in data set [2] (Homo sapiens, Hs-578T, 168 h) is 4.6 µM; in data set [3] (Homo sapiens, DU-145, 168 h), 10.8 µM.
Take `Cc1ccc(NC(=NCCCOCCCCOCCCN=C(Nc2ccc(C)cc2)Nc2ccc(C)cc2)Nc2ccc(C)cc2)cc1` [Example 15]: the EC50 in data set [2] worked out at 0.9 µM; in data set [3], 2.5 µM.

Source of the values: US6875759B1, “Substituted guanidines and the use thereof” (Kadmus Pharmaceuticals, priority 1999, dated 2005).
